From patent US11944614B2, “Imidazo[4,5-c]pyridine compounds as LSD-1 inhibitors” (THE REGENTS OF THE UNIVERSITY OF MICHIGAN, priority 2018, dated 2024)

Molecular target: Human recombinant LSD1 protein (Homo sapiens (Human), UniProt O60341)
Test: LSD1 enzymatic activity, AlphaLISA demethylation assay
Assay type: biochemical
Conditions: 4 nM LSD1, 80 nM Biotin-H3K4Me peptide substrate, 1% DMSO, 60 minutes reaction
Procedure: Human recombinant LSD1 protein expressed in E. coli cells was purchased from Active Motif (Carlsbad, Calif.). Biotin-labeled Histone H3K4Me peptide (residues 1-21 with Lys 4 monomethylated) substrate was purchased from Anaspec (Fremont, Calif.). Enzymatic activity was assessed using the AlphaLISA technology from Perkin Elmer Life Sciences (Waltham, Mass.). 2.5 μL of compound solution and 5 μL of LSD1 solutions in the assay buffer (50 mM Tris, pH 9.0, 50 mM NaCl with 0.01% Tween20 and 1 mM DTT added right before the assay) were added into a white low volume 384 well microtiter plate. This mixture solution was incubated for 15 minutes with gentle shaking at room temperature. Demethylation reaction was initiated by adding 2.5 μL of Biotin-H3K4Me peptide substrate solution in the assay buffer. Final concentrations of LSD1, Biotin-H3K4Me peptide substrate, and DMSO were 4 nM, 80 nM, and 1%, respectively. The reaction was allowed to proceed for 60 minutes in dark with gentle shaking at room temperature, after which 5 μL of Anti-H3K4 AlphaLISA acceptor beads in detection buffer from the manufacturer was added into the reaction mixture followed by incubation for 60 minutes. 10 μL of Streptavidin labeled AlphaLISA donor beads in detection buffer was added into the mixture followed by 30-minute incubation. Final acceptor and donor beads concentrations were both at 10 μg/mL. Plates were read on a BMG CLARIOStar multimode plate reader from BMG Labtech (Ortenberg, Germany) with an excitation wavelength of 680 nm and emission wavelength of 615 nm. IC50 values of inhibitors were obtained by fitting the fluorescence intensity vs inhibitor concentrations in a sigmoidal dose-response curve (variable slope) with a non-linear regression using Prism 7 (La Jolla, Calif.).

Row | SMILES | IC50 [nM]
1 | CN1CCOc2ccc(-c3ncc4c(ncn4C[C@H]4CCNC4)c3-c3ccc(C#N)c(F)c3)cc21 [compound 29, (S)-2-fluoro-4-(6-(4-methyl-3,4-dihydro-2H-benzo[b][1,4]oxazin-6-yl)-3-(pyrrolidin-3-ylmethyl)-3H-imidazo[4,5-c]pyridin-7-yl)benzonitrile] | 47
2 | Cn1ncc2cc(-c3ncc4c(ncn4C[C@H]4CCNC4)c3-c3ccc(C#N)cc3)ccc21 [compound 30, (S)-4-(6-(1-methyl-1H-indazol-5-yl)-3-(pyrrolidin-3-ylmethyl)-3H-imidazo[4,5-c]pyridin-7-yl)benzonitrile] | 39.8
3 | CN1CCC(Cn2cnc3c(-c4ccc(C#N)cc4)c(-c4ccc5c(cnn5C)c4)ncc32)C1 (centres unmarked) [compound 31, 4-(6-(1-methyl-1H-indazol-5-yl)-3-((1-methylpyrrolidin-3-yl)methyl)-3H-imidazo[4,5-c]pyridin-7-yl)benzonitrile] | 87.2
4 | CN1CCOc2cc(-c3ncc4c(ncn4CC4CCNC4)c3-c3ccc(C#N)cc3)ccc21 (centres unmarked) [compound 32, 4-(6-(4-methyl-3,4-dihydro-2H-benzo[b][1,4]oxazin-7-yl)-3-(pyrrolidin-3-ylmethyl)-3H-imidazo[4,5-c]pyridin-7-yl)benzonitrile] | 5.67
5 | CN1CCC(Cn2cnc3c(-c4ccc(C#N)cc4)c(-c4ccc5c(c4)OCCN5C)ncc32)C1 (centres unmarked) [compound 33, 4-(6-(4-methyl-3,4-dihydro-2H-benzo[b][1,4]oxazin-7-yl)-3-((1-methylpyrrolidin-3-yl)methyl)-3H-imidazo[4,5-c]pyridin-7-yl)benzonitrile] | 29.5
